Measurements reported in US8551693B2 (priority 2008, dated 2013).
Read-outs that look alike come from different tables or passages of the source.

Columns and labels:
[1] = biological target: T1, Nav1.5^Mut sodium channel (mutated human Nav1.5) (Homo sapiens, UniProt Q14524, F1486Q/K1419C); assay type: cell-based
T1 construct: expressed in transfected cells; host or cells: HEK293 cells stably expressing the Cameleon (Venus/CFP) calcium biosensor; clone VC/Nav1.5 #12
Method: VC/Nav1.5 #12 cells were incubated with different concentrations of quinidine (FIG. 6A), sertralin (FIG. 6B) or paroxetine (FIG. 6C), and a first fluorescence reading was performed, (FVenus/FCFP)0. 25 mM Ca^2+ was added to activate the channel and a second fluorescence reading was performed, (FVenus/FCFP)ca2+. […] Error bars represent the standard deviation of experiments performed in triplicate;
The fluorescence intensity was measured using a Packard Fusion™ Universal Microplate Analyzer. 75,000 cells per well were analyzed in a bath solution containing 140 mM NaCl, 2 mM KCl, 1.5 mM CaCl2, 1 mM MgCl2, 10 mM glucose, and 10 mM Na-HEPES. For calcium measurements, the bath solution contained: 140 mM NaCl, 2 mM KCl, 25 mM CaCl2, 10 mM glucose and 10 mM Na-HEPES. The pH of the bath solutions was adjusted to pH 7.4 using 1N NaOH.
Dose-response experiments in the presence of known sodium channel blockers (quinidine, sertralin and paroxetine) were performed.

[2] = test system: VC #7 control Cameleon HEK293 cell line; assay: Cameleon FRET fluorescence microplate assay in control Cameleon cell line VC #7 (does not express a sodium channel); assay type: cell-based, human; settings: VC #7 cell line that does not express a sodium channel; FIG. 4B
Excerpt: The reporter cell lines described herein are derived from the HEK293 cell line, which, in turn, is derived from human embryonic kidney. […] To generate a Nav1.5^Mut/Cameleon reporter cell line, the first step was to establish a HEK293 cell line which expresses the Cameleon calcium biosensor alone. HEK293 cells were transfected with a vector (pIREShyg3, Clonetech, Cat. No. 631620) encoding the Cameleon construct (as described in Evanko and Haydon, Cell Calcium (2005) 37: 341-348). This cell line that express the Cameleon alone was then stably transfected with the pcDNA4neo-Nav1.5^Mut expression vector (see FIG. 7A for the sequence of Nav1.5^Mut). […] The resulting cell lines were then assessed in patch-clamp for their capacity to produce robust current amplitude.
Cameleon is a fluorescent biosynthetic Ca^2+ indicator constructed by inserting a Ca^2+ sensor (Calmodulin and M13, a calmodulin-binding protein) between two mutated forms of green fluorescent protein (GFP): the energy acceptor Venus, a derivative of yellow fluorescent protein (YFP), and the energy donor, cyan fluorescent protein (CFP) (Evanko D S and Haydon P G, Cell calcium 2005, 37: 341-348). Cameleon fluorescence is affected by differences in the concentration of Ca^2+ that alter the amount of fluorescence resonance energy transfer (FRET) between CFP and Venus. […]

[3] = test system: HEK293 Cameleon cell line (intracellular Ca2+); assay: Confocal microscopy FRET ratio in HEK293 cell line stably expressing the Cameleon biosensor alone; assay type: cell-based, human; settings: 10 μM ionomycin, ratio versus time, FIG. 3B
Method: FIG. 3A: Individual Venus (right panel) and CFP (left panel) fluorescence image taken with a 40× objective. FIG. 3B: Plot of FRET ratio (Venus/CFP) versus time following addition of 10 μM ionomycin;
A HEK293 cell line stably expressing the Cameleon biosensor alone was treated with ionomycin (10 μM), a calcium ionophore, to raise the intracellular level of Ca^2+, and the FRET ratio was analysed by confocal microscopy.

## Fc1ccc([C@@H]2CCNC[C@H]2COc2ccc3c(c2)OCO3)cc1 [paroxetine]
[1]; VC/Nav1.5 #12 cells, increasing doses of blocker, 25 mM Ca2+ added to activate the channel, compared to control cells receiving buffer only, FIG. 6
  Delta FRET ratio signal, (FVenus/FCFP)Ca2+/(FVenus/FCFP)0: decrease in the Delta FRET ratio signal

## CN[C@H]1CC[C@@H](c2ccc(Cl)c(Cl)c2)c2ccccc21 [sertralin]
[1]
  Delta FRET ratio signal, (FVenus/FCFP)Ca2+/(FVenus/FCFP)0: decrease in the Delta FRET ratio signal

## C[C@H](CCC(=O)O)C[C@H](C)C[C@H](C)C(=O)/C=C(\O)[C@H](C)C[C@H](C)C/C=C/[C@@H](C)[C@@H](O)[C@@H](C)[C@@H](O)C[C@@H]1CC[C@@](C)([C@H]2CC[C@@](C)([C@@H](C)O)O2)O1 [ionomycin]
[2]
  FRET response to treatment: respond only to ionomycin
[3]
  FRET ratio (Venus/CFP): increase in the Venus/CFP ratio
[1]; VC/Nav1.5 #12 and #14 cell lines, FIG. 4B
  FRET response to treatment: respond

## C=C[C@H]1C[N@@]2CC[C@H]1C[C@@H]2[C@@H](O)c1ccnc2ccc(OC)cc12 [quinidine]
[1]
  Delta FRET ratio signal, (FVenus/FCFP)Ca2+/(FVenus/FCFP)0: decrease in the Delta FRET ratio signal
